Experimental data published in PMC6934184, “Selective DNA-PKcs inhibition extends the therapeutic index of localized radiotherapy and chemotherapy” (The Journal of Clinical Investigation, 2019).

Target: T1, MAPK9 (JNK2) (Homo sapiens, UniProt P45984)
T1 construct: purchased Thermo Fisher Scientific (Life Technologies) SelectScreen
Assay: SelectScreen Z'LYTE
Format: biochemical
Settings: ATP 100 µM
Summary of the method: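 Percent values come from Thermo SelectScreen profiling of NU5455, combining activity and binding assays. CSF1R was run in Z'LYTE format at Km app ATP, and CAMK1 in Adapta format with ATP listed at 10.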

T1 sequence (P45984 whole entry): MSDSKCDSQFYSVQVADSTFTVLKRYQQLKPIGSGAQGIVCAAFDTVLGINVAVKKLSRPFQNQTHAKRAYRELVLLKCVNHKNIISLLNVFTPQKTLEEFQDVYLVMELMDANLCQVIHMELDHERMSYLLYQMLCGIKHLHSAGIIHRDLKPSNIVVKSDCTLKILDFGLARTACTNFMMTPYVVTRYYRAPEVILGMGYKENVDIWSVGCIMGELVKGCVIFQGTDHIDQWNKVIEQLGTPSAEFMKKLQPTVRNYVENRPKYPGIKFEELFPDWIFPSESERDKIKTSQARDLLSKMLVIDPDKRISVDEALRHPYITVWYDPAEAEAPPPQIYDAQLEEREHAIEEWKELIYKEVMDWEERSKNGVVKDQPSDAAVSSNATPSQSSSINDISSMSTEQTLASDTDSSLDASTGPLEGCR

CN(C(=O)CN1CCOCC1)c1ccc2sc3c(-c4cccc5c(=O)cc(N6CC7CCC(C6)O7)oc45)cccc3c2c1 [NU5455]
inhibition at 1 µM: 2.8%
